# According to PMC7714403 (JCI Insight, 2020):
# Where two headings read alike, the source gives them in different places.
# Assays:
# Experiment in all cases: KiNativ, MOLM13 live cells
# Format in all cases: cell-based
# TAK1 = TAK1 (Homo sapiens, UniProt O43318); conditions: MOLM-13; 100 nM, 2 hours; Lys2; read-out: Inhibition vs DMSO
# Method: (§1) Samples were analyzed by KiNativ in situ kinase profiling by ActivX Biosciences.
# p70S6K = p70S6K (Homo sapiens, UniProt P23443); conditions: MOLM-13; 100 nM, 2 hours; Lys2; read-out: Inhibition vs DMSO
# Method: as §1
# BARK1 = BARK1 (Homo sapiens, UniProt P25098); conditions: MOLM-13; 100 nM, 2 hours; Lys2; read-out: Inhibition vs DMSO
# Method: as §1
# GSK3A = GSK3A (Homo sapiens, UniProt P49840); conditions: MOLM-13; 100 nM, 2 hours; Lys2; read-out: Inhibition vs DMSO
# Method: as §1
# ARAF = ARAF (Homo sapiens, UniProt P10398); conditions: MOLM-13; 100 nM, 2 hours; Lys2; read-out: Inhibition vs DMSO
# Method: as §1
# TLK2 = TLK2 (Homo sapiens, UniProt Q86UE8); conditions: MOLM-13; 100 nM, 2 hours; Lys2; read-out: Inhibition vs DMSO
# Method: as §1
# PIK3CB = PIK3CB (Homo sapiens, UniProt P42338); conditions: MOLM-13; 100 nM, 2 hours; ATP; read-out: Inhibition vs DMSO
# Method: as §1
# PIK3CD = PIK3CD (Homo sapiens, UniProt O00329); conditions: MOLM-13; 100 nM, 2 hours; ATP; read-out: Inhibition vs DMSO
# Method: as §1
# ACK = ACK (Homo sapiens, UniProt Q07912); conditions: MOLM-13; 100 nM, 2 hours; Lys1; read-out: Inhibition vs DMSO
# Method: as §1
# MAPKAPK3 = MAPKAPK3 (Homo sapiens, UniProt Q16644); conditions: MOLM-13; 100 nM, 2 hours; ATP Loop; read-out: Inhibition vs DMSO
# Method: as §1
# LATS1 = target: T1, LATS1 (Homo sapiens, UniProt O95835); conditions: MOLM-13, 2 h, 100 nM
# T1 sequence (O95835 1-1130): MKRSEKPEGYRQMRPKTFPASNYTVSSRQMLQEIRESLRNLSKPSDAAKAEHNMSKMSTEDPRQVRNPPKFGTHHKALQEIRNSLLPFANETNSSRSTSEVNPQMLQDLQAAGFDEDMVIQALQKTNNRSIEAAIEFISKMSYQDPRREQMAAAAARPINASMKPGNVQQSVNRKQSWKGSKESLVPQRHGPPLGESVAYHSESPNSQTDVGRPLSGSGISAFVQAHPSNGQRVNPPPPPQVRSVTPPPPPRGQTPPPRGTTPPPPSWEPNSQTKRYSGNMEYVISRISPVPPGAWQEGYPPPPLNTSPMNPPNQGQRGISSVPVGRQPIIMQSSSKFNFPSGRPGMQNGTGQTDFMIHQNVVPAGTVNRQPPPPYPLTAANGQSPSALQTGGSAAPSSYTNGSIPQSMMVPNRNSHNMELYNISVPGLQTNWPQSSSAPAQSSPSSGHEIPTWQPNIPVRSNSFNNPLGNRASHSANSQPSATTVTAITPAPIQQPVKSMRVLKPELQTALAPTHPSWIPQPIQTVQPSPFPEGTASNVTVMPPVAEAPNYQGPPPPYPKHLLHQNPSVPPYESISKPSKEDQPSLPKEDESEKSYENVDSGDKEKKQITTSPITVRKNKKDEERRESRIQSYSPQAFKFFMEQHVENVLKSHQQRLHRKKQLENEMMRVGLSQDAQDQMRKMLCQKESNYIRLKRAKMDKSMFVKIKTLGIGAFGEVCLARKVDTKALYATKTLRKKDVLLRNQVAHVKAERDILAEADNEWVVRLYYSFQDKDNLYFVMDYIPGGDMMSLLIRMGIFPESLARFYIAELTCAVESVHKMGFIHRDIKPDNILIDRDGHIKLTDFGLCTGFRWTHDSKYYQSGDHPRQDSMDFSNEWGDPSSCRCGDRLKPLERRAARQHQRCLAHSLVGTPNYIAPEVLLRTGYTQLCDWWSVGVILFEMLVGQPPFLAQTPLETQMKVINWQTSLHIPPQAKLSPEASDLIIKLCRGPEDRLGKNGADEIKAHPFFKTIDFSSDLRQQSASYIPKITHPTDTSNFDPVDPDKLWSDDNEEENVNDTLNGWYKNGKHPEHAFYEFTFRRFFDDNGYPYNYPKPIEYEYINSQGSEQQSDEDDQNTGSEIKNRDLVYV
# Method: as §1
# MAP4K3 = MAP4K3 (Homo sapiens, UniProt Q8IVH8); conditions: 100 nM, 2 hours; Lys2
# Method: as §1
# ATR = ATR (Homo sapiens, UniProt Q13535); conditions: MOLM-13; 100 nM, 2 hours; ATP; read-out: Inhibition vs DMSO
# Method: as §1
# MSK2 domain1 = target: T2, MSK2 domain1 (Homo sapiens, UniProt O75676); conditions: MOLM-13, 2 h, 100 nM
# T2 construct: MSK2 domain1
# Method: as §1
# MST1 = MST1 (Homo sapiens, UniProt Q13043); conditions: 100 nM, 2 hours; Lys1
# Method: as §1
# MLK4 = MLK4 (Homo sapiens, UniProt Q5TCX8); conditions: MOLM-13; 100 nM, 2 hours; Lys2; read-out: Inhibition vs DMSO
# Method: as §1
# MAP2K5 = MAP2K5 (Homo sapiens, UniProt Q13163); conditions: MOLM-13; 100 nM, 2 hours; Lys2; read-out: Inhibition vs DMSO
# Method: as §1
# MAP3K4 = MAP3K4 (Homo sapiens, UniProt Q9Y6R4); conditions: MOLM-13, 2 h, 100 nM
# Method: as §1
# PIK3C3 = PIK3C3 (Homo sapiens, UniProt Q8NEB9); conditions: MOLM-13, 2 h, 100 nM, ATP, read-out: Inhibition vs DMSO
# PIK3C3, sequence (Q8NEB9 whole entry): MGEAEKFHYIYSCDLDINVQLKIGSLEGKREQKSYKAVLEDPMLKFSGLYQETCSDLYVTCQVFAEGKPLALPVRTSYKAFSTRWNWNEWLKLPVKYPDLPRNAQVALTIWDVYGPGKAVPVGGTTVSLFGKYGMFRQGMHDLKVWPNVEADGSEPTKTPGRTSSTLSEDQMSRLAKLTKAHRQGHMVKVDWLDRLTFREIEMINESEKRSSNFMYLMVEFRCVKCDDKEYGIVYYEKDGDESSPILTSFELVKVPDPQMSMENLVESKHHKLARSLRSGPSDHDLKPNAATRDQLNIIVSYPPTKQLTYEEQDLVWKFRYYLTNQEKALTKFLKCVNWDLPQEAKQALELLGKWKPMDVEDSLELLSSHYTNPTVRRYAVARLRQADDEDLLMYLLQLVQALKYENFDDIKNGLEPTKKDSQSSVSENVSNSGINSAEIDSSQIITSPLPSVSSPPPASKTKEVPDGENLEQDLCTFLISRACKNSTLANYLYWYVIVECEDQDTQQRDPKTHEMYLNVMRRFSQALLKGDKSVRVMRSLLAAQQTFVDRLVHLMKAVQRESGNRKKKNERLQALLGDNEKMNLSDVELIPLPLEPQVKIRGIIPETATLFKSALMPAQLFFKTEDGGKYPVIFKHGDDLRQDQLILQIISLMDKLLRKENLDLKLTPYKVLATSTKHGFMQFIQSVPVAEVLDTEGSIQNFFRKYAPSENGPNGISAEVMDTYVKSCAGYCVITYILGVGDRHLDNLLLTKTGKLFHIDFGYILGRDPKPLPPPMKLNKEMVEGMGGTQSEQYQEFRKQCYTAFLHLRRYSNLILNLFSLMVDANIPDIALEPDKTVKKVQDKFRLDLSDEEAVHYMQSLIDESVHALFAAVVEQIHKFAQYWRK
# Method: as §1
# SGK3 = SGK3 (Homo sapiens, UniProt Q96BR1); conditions: MOLM-13; 100 nM, 2 hours; Lys1; read-out: Inhibition vs DMSO
# Method: as §1
# SMG1 = SMG1 (Homo sapiens, UniProt Q96Q15); conditions: 100 nM, 2 hours, ATP
# SMG1, sequence (Q96Q15 whole entry): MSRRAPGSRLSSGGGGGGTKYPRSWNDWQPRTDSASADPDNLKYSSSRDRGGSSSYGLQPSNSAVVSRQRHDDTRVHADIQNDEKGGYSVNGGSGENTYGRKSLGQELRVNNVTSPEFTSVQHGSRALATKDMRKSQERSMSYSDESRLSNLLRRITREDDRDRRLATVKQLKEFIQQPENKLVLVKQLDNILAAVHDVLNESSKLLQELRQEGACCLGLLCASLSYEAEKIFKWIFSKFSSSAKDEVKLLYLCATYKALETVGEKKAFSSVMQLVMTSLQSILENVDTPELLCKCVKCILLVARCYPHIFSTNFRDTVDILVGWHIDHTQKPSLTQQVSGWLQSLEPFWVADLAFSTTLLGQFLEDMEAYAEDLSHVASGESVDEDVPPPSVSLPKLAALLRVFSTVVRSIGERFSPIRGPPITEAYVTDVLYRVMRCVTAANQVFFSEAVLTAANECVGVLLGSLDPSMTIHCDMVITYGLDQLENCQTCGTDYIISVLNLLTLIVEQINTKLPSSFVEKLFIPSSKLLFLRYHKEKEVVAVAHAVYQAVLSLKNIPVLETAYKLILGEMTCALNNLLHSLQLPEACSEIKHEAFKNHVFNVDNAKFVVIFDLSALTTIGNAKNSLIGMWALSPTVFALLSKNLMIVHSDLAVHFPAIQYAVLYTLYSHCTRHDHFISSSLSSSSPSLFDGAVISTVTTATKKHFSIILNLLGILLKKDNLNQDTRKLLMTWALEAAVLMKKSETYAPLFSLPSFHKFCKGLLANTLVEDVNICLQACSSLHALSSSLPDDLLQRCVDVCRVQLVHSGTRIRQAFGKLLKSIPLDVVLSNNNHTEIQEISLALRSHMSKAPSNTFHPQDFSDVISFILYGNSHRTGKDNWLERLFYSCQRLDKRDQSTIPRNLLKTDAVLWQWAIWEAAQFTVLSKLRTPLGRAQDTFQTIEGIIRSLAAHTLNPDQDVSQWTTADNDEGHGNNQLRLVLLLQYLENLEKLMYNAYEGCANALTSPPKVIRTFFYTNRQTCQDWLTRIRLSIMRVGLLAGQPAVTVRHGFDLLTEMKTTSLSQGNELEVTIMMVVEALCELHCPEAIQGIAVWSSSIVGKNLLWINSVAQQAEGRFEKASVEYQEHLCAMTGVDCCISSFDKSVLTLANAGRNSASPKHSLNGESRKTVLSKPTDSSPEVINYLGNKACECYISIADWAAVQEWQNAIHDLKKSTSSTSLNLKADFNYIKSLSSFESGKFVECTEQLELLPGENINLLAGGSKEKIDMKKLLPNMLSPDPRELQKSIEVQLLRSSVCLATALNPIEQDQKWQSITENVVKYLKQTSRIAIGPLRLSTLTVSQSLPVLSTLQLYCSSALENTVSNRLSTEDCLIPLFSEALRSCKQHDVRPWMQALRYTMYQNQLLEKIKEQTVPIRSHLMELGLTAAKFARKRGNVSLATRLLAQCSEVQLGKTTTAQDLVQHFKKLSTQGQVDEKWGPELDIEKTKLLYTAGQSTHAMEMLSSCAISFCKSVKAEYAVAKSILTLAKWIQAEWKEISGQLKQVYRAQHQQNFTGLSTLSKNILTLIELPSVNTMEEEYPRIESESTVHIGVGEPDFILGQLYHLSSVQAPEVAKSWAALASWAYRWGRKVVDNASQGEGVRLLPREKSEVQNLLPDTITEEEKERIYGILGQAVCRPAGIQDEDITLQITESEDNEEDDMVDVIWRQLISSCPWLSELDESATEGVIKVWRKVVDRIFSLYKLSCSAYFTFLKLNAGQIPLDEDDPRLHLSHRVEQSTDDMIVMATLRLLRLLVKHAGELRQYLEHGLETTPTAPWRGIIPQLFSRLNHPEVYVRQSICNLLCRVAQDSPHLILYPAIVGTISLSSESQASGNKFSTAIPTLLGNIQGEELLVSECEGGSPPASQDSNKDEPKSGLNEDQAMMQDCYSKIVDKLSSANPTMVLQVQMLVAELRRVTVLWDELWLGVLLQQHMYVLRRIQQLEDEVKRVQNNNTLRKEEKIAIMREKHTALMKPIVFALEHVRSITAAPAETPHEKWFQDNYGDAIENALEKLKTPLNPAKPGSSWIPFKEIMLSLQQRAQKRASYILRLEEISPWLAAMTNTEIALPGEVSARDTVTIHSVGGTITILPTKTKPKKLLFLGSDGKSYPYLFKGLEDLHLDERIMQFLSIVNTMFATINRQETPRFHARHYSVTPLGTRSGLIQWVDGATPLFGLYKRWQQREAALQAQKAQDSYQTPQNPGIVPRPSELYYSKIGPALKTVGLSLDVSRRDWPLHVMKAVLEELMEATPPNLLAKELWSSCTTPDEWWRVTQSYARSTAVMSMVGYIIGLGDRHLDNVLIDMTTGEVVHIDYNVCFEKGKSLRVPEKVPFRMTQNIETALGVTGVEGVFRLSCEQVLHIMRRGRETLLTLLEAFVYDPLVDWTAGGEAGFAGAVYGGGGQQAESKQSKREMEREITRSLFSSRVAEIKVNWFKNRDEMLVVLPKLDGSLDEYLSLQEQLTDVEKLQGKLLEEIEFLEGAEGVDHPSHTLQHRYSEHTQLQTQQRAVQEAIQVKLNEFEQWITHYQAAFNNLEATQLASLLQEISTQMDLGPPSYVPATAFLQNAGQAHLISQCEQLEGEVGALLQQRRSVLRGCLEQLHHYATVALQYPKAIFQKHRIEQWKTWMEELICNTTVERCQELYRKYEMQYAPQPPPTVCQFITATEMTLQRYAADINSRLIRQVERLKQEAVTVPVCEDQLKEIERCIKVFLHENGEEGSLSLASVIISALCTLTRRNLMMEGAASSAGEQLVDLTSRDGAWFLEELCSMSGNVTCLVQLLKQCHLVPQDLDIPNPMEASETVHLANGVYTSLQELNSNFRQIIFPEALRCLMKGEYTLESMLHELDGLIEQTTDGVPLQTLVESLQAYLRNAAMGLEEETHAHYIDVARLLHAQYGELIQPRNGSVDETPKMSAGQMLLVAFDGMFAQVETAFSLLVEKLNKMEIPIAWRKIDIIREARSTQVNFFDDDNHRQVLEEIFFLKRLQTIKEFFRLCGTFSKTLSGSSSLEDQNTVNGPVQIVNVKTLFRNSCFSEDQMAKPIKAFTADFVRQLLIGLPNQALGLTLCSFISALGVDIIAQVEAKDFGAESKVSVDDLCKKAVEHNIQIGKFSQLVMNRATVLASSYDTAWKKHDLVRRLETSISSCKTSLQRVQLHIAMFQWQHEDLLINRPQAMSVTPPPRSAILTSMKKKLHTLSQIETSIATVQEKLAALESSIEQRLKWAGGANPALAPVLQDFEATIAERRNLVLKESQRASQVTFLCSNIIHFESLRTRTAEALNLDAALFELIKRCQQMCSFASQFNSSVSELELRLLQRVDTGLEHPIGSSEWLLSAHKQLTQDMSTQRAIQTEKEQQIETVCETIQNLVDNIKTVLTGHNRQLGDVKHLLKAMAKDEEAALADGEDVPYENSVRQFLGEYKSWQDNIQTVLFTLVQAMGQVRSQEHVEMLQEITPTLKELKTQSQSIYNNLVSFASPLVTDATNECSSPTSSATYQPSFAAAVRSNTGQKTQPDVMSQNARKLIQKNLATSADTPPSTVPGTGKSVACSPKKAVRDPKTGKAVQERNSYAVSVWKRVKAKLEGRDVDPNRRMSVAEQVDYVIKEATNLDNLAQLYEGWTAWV
# Method: as §1
# eEF2K = eEF2K (Homo sapiens, UniProt O00418); conditions: MOLM-13; 100 nM, 2 hours; ATP; read-out: Inhibition vs DMSO
# Method: as §1
# CaMK2d = CaMK2d (Homo sapiens, UniProt Q13557); conditions: MOLM-13; 100 nM, 2 hours; Lys1; read-out: Inhibition vs DMSO
# Method: as §1
# [1] = Lys1, read-out: Inhibition vs DMSO
# [2] = Lys2, read-out: Inhibition vs DMSO
# TAK1, sequence (O43318 whole entry): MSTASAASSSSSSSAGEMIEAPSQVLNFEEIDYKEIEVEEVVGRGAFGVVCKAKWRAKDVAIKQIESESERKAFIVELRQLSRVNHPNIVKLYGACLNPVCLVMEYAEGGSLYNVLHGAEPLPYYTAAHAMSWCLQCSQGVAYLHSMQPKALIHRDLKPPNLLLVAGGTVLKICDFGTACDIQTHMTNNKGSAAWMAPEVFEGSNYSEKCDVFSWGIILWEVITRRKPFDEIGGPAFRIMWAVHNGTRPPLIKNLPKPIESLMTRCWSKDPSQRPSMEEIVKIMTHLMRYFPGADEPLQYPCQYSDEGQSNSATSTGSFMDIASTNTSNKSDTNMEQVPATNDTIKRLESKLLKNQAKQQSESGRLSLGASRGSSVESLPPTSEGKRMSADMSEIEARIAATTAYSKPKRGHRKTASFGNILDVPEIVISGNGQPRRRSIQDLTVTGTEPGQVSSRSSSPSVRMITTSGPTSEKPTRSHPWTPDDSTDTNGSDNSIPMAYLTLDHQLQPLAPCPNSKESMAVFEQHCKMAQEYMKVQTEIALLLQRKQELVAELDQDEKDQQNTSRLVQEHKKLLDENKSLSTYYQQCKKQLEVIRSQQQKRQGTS
compound,measurement,setting,value
CN1CCN(Cc2ccc(Nc3ncc(Cl)c(Nc4ccccc4S(=O)(=O)N(C)C)n3)cc2)CC1 [TP-0903],inhibition at 0.1 µM,TAK1,-2.8%
same,inhibition at 0.1 µM,p70S6K,-32.8%
same,inhibition at 0.1 µM,BARK1,-13.9%
same,inhibition at 0.1 µM,GSK3A,-8.9%
same,inhibition at 0.1 µM,ARAF,-2.9%
same,inhibition at 0.1 µM,TLK2,18%
same,inhibition at 0.1 µM,PIK3CB,-0.9%
same,inhibition at 0.1 µM,PIK3CD,-4.6%
same,inhibition at 0.1 µM,ACK,44.5%
same,inhibition at 0.1 µM,MAPKAPK3,-45.7%
same,inhibition at 0.1 µM,LATS1; [1],6.7%
same,inhibition at 0.1 µM,LATS1; [2],-12.4%
same,Inhibition vs DMSO,MAP4K3,45.4%
same,inhibition at 0.1 µM,ATR,7.6%
same,inhibition at 0.1 µM,MSK2 domain1; [1],13.3%
same,inhibition at 0.1 µM,MSK2 domain1; [2],26.8%
same,Inhibition vs DMSO,MST1,42.4%
same,inhibition at 0.1 µM,MLK4,-13.5%
same,inhibition at 0.1 µM,MAP2K5,-1.6%
same,inhibition at 0.1 µM,MAP3K4; [1],8.8%
same,inhibition at 0.1 µM,MAP3K4; [2],6.6%
same,inhibition at 0.1 µM,PIK3C3; TEDGGKYPVIFKHGDDLR,-23.9%
same,inhibition at 0.1 µM,PIK3C3; TEDGGKYPVIFKHGDDLRQDQLILQIISLMDK,2.6%
same,inhibition at 0.1 µM,SGK3,-9.6%
same,Inhibition vs DMSO,SMG1; DTVTIHSVGGTITILPTKTKPK,-27.8%
same,Inhibition vs DMSO,SMG1; SYPYLFKGLEDLHLDER,-27.3%
same,inhibition at 0.1 µM,eEF2K,-29.5%
same,inhibition at 0.1 µM,CaMK2d,7.5%
